Source: PubChem BioAssay AID588373 (NMMLSC, 2011)

These compounds were tested against Cell division control protein 42 homolog (Homo sapiens) (UniProt P60953) (assay: inhibition of fluorescent GTP binding to mutant Cdc42 – biochemical, probe extension, bead-based multiplex flow cytometry, round 1, SAR follow-up (AID 588373)). Conditions: Bodipy-FL-GTP binding, EDTA.
Chain of Cell division control protein 42 homolog (Homo sapiens) (P60953 whole entry, looked up): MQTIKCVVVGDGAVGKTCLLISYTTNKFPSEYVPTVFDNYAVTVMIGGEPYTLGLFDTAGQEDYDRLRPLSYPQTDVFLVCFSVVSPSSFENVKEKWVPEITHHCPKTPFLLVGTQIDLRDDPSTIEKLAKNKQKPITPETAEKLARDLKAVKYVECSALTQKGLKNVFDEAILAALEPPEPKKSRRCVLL

Row | EC50 [nM] | Structure (SMILES)
1 | 6140 | NS(=O)(=O)c1ccc(N2N=C(c3ccccc3)CC2c2ccccc2)cc1 (stereo not drawn)
2 | 368 | O=C(C#Cc1ccccc1)c1cccc([N+](=O)[O-])c1
3 | 1890 | COc1ccc(C2CC(c3ccccc3)=NN2c2ccc(S(N)(=O)=O)cc2)cc1 (stereo not drawn)
